# Measurements as given in PubChem BioAssay AID1918953 (Molecular Pharmacology Branch, DTP, NCI, 2023).
# System: MDA-MB-231 complex spheroid viability
# Test: Anticancer human tumor MDA-MB-231/ATCC cell line growth inhibition;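 note: drug exposure lasted 7 days starting on day 3 of spheroid growth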
# Conditions: for IC50: curve of first compound; for viability, T/C: stronger effect = lower value
# In short: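 Drug combinations with the LSD1 inhibitor iadademstat tested on tumor cells co-cultured as spheroids with endothelial cells and mesenchymal stem cells. Concentrations descended in half-log increments from clinical Cmax or 10 microM.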
# [1] = second compound 0.1 µM, first compound 0.000316 µM
# [2] = second compound 0.1 µM, first compound 0.001 µM
# [3] = second compound 0.1 µM, first compound 0.00316 µM
# [4] = second compound 0.1 µM, first compound 0.01 µM
# [5] = second compound 0.1 µM, first compound 0.0316 µM
# [6] = second compound 0.1 µM, first compound 0.1 µM
# [7] = second compound 0.316 µM, first compound 0.000316 µM
# [8] = second compound 0.316 µM, first compound 0.001 µM
# [9] = second compound 0.316 µM, first compound 0.00316 µM
# [10] = second compound 0.316 µM, first compound 0.01 µM
# [11] = second compound 0.316 µM, first compound 0.0316 µM
# [12] = second compound 0.316 µM, first compound 0.1 µM
# [13] = second compound 1 µM, first compound 0.000316 µM
# [14] = second compound 1 µM, first compound 0.001 µM
# [15] = second compound 1 µM, first compound 0.00316 µM
# [16] = second compound 1 µM, first compound 0.01 µM
# [17] = second compound 1 µM, first compound 0.0316 µM
# [18] = second compound 1 µM, first compound 0.1 µM
# [19] = second compound 3.16 µM, first compound 0.000316 µM
# [20] = second compound 3.16 µM, first compound 0.001 µM
# [21] = second compound 3.16 µM, first compound 0.00316 µM
# [22] = second compound 3.16 µM, first compound 0.01 µM
# [23] = second compound 3.16 µM, first compound 0.0316 µM
# [24] = second compound 3.16 µM, first compound 0.1 µM
# [25] = second compound 10 µM, first compound 0.000316 µM
# [26] = second compound 10 µM, first compound 0.001 µM
# [27] = second compound 10 µM, first compound 0.00316 µM
# [28] = second compound 10 µM, first compound 0.01 µM
# [29] = second compound 10 µM, first compound 0.0316 µM
# [30] = second compound 10 µM, first compound 0.1 µM
SMILES,IC50 (second compound 0.1 µM) [nM],IC50 (second compound 0.316 µM) [nM],IC50 (second compound 1 µM) [nM],IC50 (second compound 3.16 µM) [nM],IC50 (second compound 10 µM) [nM],"viability, T/C [3] [%]","viability, T/C [4] [%]","viability, T/C [5] [%]","viability, T/C [6] [%]","viability, T/C [9] [%]","viability, T/C [10] [%]","viability, T/C [11] [%]","viability, T/C [12] [%]","viability, T/C [15] [%]","viability, T/C [16] [%]","viability, T/C [17] [%]","viability, T/C [18] [%]","viability, T/C [21] [%]","viability, T/C [22] [%]","viability, T/C [23] [%]",also measured
CC(C)CC(NC(=O)C(Cc1ccccc1)NC(=O)c1cnccn1)B(O)O (stereo not given) + NC1CCC(NC2CC2c2ccccc2)CC1,1.2,1.23,1.05,0.729,0.478,1.89,0.42,0.53,3.01,1.73,0.23,0.28,0.27,3.37,0.18,0.38,0.72,1.87,0.16,0.08,"viability, T/C [1]: 106%; viability, T/C [2]: 59.2%; viability, T/C [7]: 107%; viability, T/C [8]: 60.7%; viability, T/C [13]: 104%; viability, T/C [14]: 52%; viability, T/C [19]: 70%; viability, T/C [20]: 42.4%; viability, T/C [24]: 0.54%; viability, T/C [25]: 58.9%; viability, T/C [26]: 34.1%; viability, T/C [27]: 0.9%; viability, T/C [28]: 0.23%; viability, T/C [29]: 1.54%; viability, T/C [30]: 1.08%"
CC(C)CC(NC(=O)CNC(=O)c1cc(Cl)ccc1Cl)B1OC(=O)CC(CC(=O)O)(C(=O)O)O1 (stereo not given) + NC1CCC(NC2CC2c2ccccc2)CC1,7.26,7.08,7.23,5.75,3.98,85,36.5,5.81,0.78,81.8,36.4,5.22,0.88,85.8,36,4.74,0.52,69.4,31.7,3.87,"viability, T/C [1]: 105%; viability, T/C [2]: 110%; viability, T/C [7]: 98.9%; viability, T/C [8]: 107%; viability, T/C [13]: 102%; viability, T/C [14]: 107%; viability, T/C [19]: 83.8%; viability, T/C [20]: 86.7%; viability, T/C [24]: 0.63%; viability, T/C [25]: 57.6%; viability, T/C [26]: 61.2%; viability, T/C [27]: 55.8%; viability, T/C [28]: 25.7%; viability, T/C [29]: 2.19%; viability, T/C [30]: 0.65%"
COc1cc(Nc2ncc3c(n2)-c2ccc(Cl)cc2C(c2c(F)cccc2OC)=NC3)ccc1C(=O)O + NC1CCC(NC2CC2c2ccccc2)CC1,252,179,296,90.1,< 3.16,85,66.4,56,58.7,83.1,65.5,56.2,54.9,80.4,64.6,55.6,56.2,68.4,54,51.2,"viability, T/C (second compound 0.1 µM, first compound 0.316 µM): 50%; viability, T/C (second compound 0.1 µM, first compound 1 µM): 44.3%; viability, T/C (second compound 0.316 µM, first compound 0.316 µM): 50.8%; viability, T/C (second compound 0.316 µM, first compound 1 µM): 42.7%; viability, T/C (second compound 1 µM, first compound 0.316 µM): 51.5%; viability, T/C (second compound 1 µM, first compound 1 µM): 45.6%; viability, T/C [24]: 54.5%; viability, T/C (second compound 3.16 µM, first compound 0.316 µM): 48.5%; viability, T/C (second compound 3.16 µM, first compound 1 µM): 38.2%; viability, T/C [27]: 49.4%; viability, T/C [28]: 42.4%; viability, T/C [29]: 40.7%; viability, T/C [30]: 38.6%; viability, T/C (second compound 10 µM, first compound 0.316 µM): 41.8%; viability, T/C (second compound 10 µM, first compound 1 µM): 37.2%"
